Measured values from US5508384A, “Polypeptide derived from a popamine receptor, and compositions and methods thereof” (New York University, priority 1993, dated 1996).

Assays:
[1] = system: dopamine receptor sites in the basal ganglia; settings: cited from earlier work
[2] = system: norepinephrine receptor sites in thalamic and hypothalamic areas; settings: cited from earlier work
[3] = basal ganglia, thalamic and hypothalamic areas; cited from earlier work
[4] = in vivo; cited from earlier work
[5] = Radioligand binding assay, polypeptide in DMPC small unilamellar vesicles; settings: lipid:peptide 147:1, 1 h at 25° C., pH 7.4, FIG. 7
Procedure: Preparation of Small Unilamellar Visicles. Polypeptides were incorporated into DMPC vesicles at lipid:peptide ratio of 147:1 in the followinq manner: polypept ide in HFIP was mixed with dimyrystyroyl-phosphatidylcholine (synthetic) (DMPC) in dry chloroform and dried to a film with a stream of dry nitrogen at 0° C. This residue was then dried further overnight under a vacuum (1×10^-2 torr). The residue was then hydrated in […] and sonicated for a 30-min period under nitrogen at 0° C. The suspension was sedimented for a 30-min at 100,000 q (4° C.) to remove any residual titanium particles and large unilamellar vesicles The supernatant was removed and sedimented once more at 159,000 g for a 45 min period at 4° C. The supernatant in the lower portion was used immediately.
Radioligand Bining Assays. A 0.50 mL volume of 1.00 nM [^3 H]-spiperone(New England specific activity […]) was added to assay tubes which contained 0.5 mL lipid/peptide supernatant, 0.5 mL Tris buffer pH 7.4 and 0.5 mL of cold drug for a final volume of 2.0 mL. […]
Filters were then washed with 6.0 mL of cold 50 mM Tris-HCl buffer, pH 7.40. For detection of radioactivity, filters were placed in 2.0 mL of scintillation fluid (Scintiverse) and incubated for 24 h. The activity of the tritium was determined in a Beckman LS 7500 liquid scintillation counter. […]

[6] = Circular dichroism, helical content; format: physicochemical; settings: solvent system in which most membrane polypeptides are strongly helical; FIG. 6
Procedure: Circular Dichroism (CD). Spectra were recorded on an Aviv model 60 DS circular dichroism spectrophotometer at room temperature with a 1 cm by 1 mm cell. The amplitude of the CD signal was calibrated using 10.1% (w/v) solution of d (+)-camphorsulfonic acid (Aldrich) and the wavelength of the CD signal was set using standard absorbance peaks of benzene vapor. Polypeptide ccncentrations were determined in a Cary 210 UV spectrophotomer wwith the absorbance measured at 280 nm. Helical content was estimated using CD signal intensity according to the method of Chen. et al Biochem. 13:[…] (1974). This calculation compares the experimental ellipticity at. 222 nm ( [θ]222) ( [θ]) to a theoretical [θ]222. The theoretical [θ]222 is empirically adjusted to account for differences in polypeptide length and is based on experimental CD data from a series of proteins with known crystal structures. Since both the curve shape and magnitude are important in analysis of a CD spectrum for secondary structure contributions, we also considered qualitatively the contributions to the spectral shapes from different secondary structures using reference curves for poly (L-lysine).

Molecule	Blocks DA [1]	Blocks NE [2]	other results
CN(C)CCCN1c2ccccc2Sc2ccc(Cl)cc21 [Chlorpromazine]	Yes++	Yes++	
O=C(CCCN1CCC(O)(c2ccc(Cl)cc2)CC1)c1ccc(F)cc1 [Haloperidol]	Yes++++	Yes+	
COC(=O)[C@H]1[C@H]2C[C@@H]3c4[nH]c5cc(OC)ccc5c4CCN3C[C@H]2C[C@@H](OC(=O)c2cc(OC)c(OC)c(OC)c2)[C@@H]1OC [Reserpine]			concentrations of norepinephrine and dopamine [3]: reduces
CN1CCN(CC/C=C2/c3ccccc3Sc3ccc(S(=O)(=O)N(C)C)cc32)CC1 [Thiothixene]	Yes+	Yes+++	
CN1CCN(C2=Nc3cc(Cl)ccc3Nc3ccccc32)CC1 [clozapine]			motor side effects [4]: apparently capable of producing less motor side effects
Polypeptide III: consensus peptide of the dopamine D2 receptor transmembrane domains I-VII (DYAIFVLYASAWLSFNCPFIVTLNIK)			binding of [^3 H]-spiperone (receptor-like functional binding) [5]: binding to the neuroleptic agent, spiperone, into a stereoselective, concentration-dependent manner; helical structure from CD spectrum [6]: only partially helical
